Source: patent US4956357A (priority 1984, dated 1990)
≈ marks a conversion by molar mass, not a printed value.

Key:
Solubility in sesame oil = format: physicochemical; details: organic solvent or mixture, 37° C., limit of solubility
Procedure: (This was the limit of solubility of DHT-hep in sesame oil at 37° C. The warm sesame oil mixture was filtered in a laminar flow hood through a 0.20 micron filter into sterile injection vials. The vials were sealed, tested for sterility and pyroqens, and stored at room temperature.

FSH [1] = experiment: Plasma FSH after DHT-hep; format: in vivo, human; details: for mean plasma FSH: before 190.5±50.7
Procedure: (§1) Four pubertal boys, ages 14-16 years with gynecomastia which had lasted for more than 16 months and who all had breast diameters of more than 4 cm were studied. Their breast diameters ranged from 4.0 to 7.3 cm and breast areas from 13.5 to 41.4 cm^2 with mean breast area (±SEM) 24.3±4.1 cm^2.
(§2) The patients were given 200 mg DHT-hep in sesame oil intramuscularly. […] Subsequent testing was at 2, 3 and 4 weeks, and then just prior to each dose of DHT-hep. […] In two boys, the dose of DHT-hep was increased to 400 mg. Treatment lasted 16 weeks. The patients were examined before each injection of DHT-hep and at two months and six months after therapy. Patients' unpaired, or when appropriate, paired tests were used to determine significant differences (p less than 0.05). Results were all expressed as mean±Standard Error.

LH [2] = experiment: 24-hour urinary LH; format: in vivo, human; details: after 1 week of treatment; before 13.0±1.3
Procedure: as §2

human estrogen receptor = experiment: Binding to estrogen receptor; details: heptanoate ester
estradiol = experiment: Plasma estradiol after DHT-hep; format: in vivo, human; details: for mean estradiol level: before 23.8±3.2
Procedure: as §1, §2

FSH [3] = experiment: 24-hour urinary FSH; format: in vivo, human; details: after 1 week of treatment; before 8.4±0.8
Procedure: as §2

[4] = Plasma DHT after intramuscular DHT-hep; format: in vivo, human
Procedure: as §1, §2

LH [5] = experiment: Plasma LH after DHT-hep; format: in vivo, human
Procedure: as §1, §2

gynecomastia = experiment: Treatment of gynecomastia in pubertal boys (breast diameter and area); format: in vivo, human
Procedure: as §1, §2

male external genitalia = experiment: Use of DHT-hep as an androgen (development of male external genitalia); format: in vivo, human
Text: DHT-hep was given to two patients for the purpose of stimulating development of the male external genitalia. One was a person with hypogonadotrophic hypogonadism. […] The second patient was a child in early puberty with qynecomastia.

testosterone = experiment: Plasma testosterone after DHT-hep; format: in vivo, human; details: for mean plasma testosterone: before 283.8±87.5
Procedure: as §1, §2

[6] = another set of tests, 10 adolescent patients
[7] = mean ± SE, two months after therapy
[8] = subject four, 200 mg every 3 wks, 2 mo. post treatment
[9] = subject one, 400 mg every 3 wks, 2 mo. post treatment
[10] = subject three, 200 mg every 2 wks, 2 mo. post treatment
[11] = subject two, 400 mg every 3 wks, 2 mo. post treatment
[12] = injections every two to three weeks
[13] = child in early puberty with gynecomastia, 4 months
[14] = person, 200 mg/month i.m., 6 months

For `CCCCCCC(=O)O[C@H]1CC[C@H]2[C@@H]3CC[C@H]4CC(=O)CC[C@]4(C)[C@H]3CC[C@]12C` [DHT-hep, dihydrotestosterone heptanoate], the solubility (Solubility in sesame oil) was 190 mg/mL (≈ 472 mM), the “plasma FSH change” value (FSH [1]; DHT-hep i.m., four boys) was “statistically significant decreases” and the “plasma FSH change” value (FSH [1]; [6]) was “reduction”. For the same compound, the FSH (FSH [1]; injection, general statement) was “suppression”, the “mean plasma FSH” value (FSH [1]; mean ± SE, 16 weeks) was 40.3 ± 7.3 ng/mL and the “plasma FSH” value (FSH [1]; [7]) was 121.5 ± 17.4 ng/mL. For the same compound, the “mean plasma FSH” value (FSH [1]; mean ± SE, two weeks) was 58.8 ± 18.5 ng/mL, the FSH (FSH [1]; [8]) was 150 ng/mL and the FSH (FSH [1]; subject four, 200 mg every 3 wks, after 16 wks treatment, before 334) was under 27 ng/mL. It also gave an FSH (FSH [1]; [9]) of 73 ng/mL, an FSH (FSH [1]; subject one, 400 mg every 3 wks, after 16 wks treatment, before 96) of 34 ng/mL and an FSH (FSH [1]; [10]) of 120 ng/mL. The FSH (FSH [1]; subject three, 200 mg every 2 wks, after 16 wks treatment, before 175) was 61 ng/mL, the FSH (FSH [1]; [11]) was 143 ng/mL and the FSH (FSH [1]; subject two, 400 mg every 3 wks, after 16 wks treatment, before 157) was 39 ng/mL. For the same compound, the “24-hour urinary LH” value (LH [2]) was 7.4±3 IU/day, the “binding to human estrogen receptor” value (human estrogen receptor) was “not binding tightly” and the plasma estradiol change (estradiol; DHT-hep i.m., four boys) was “statistically significant decreases”. The plasma estradiol change (estradiol; [6]) was “reduction”, the Estradiol (estradiol; injection, general statement) was “suppression” and the “maintenance of estradiol suppression” value (estradiol; [12]) was “maintained”. The mean estradiol level (estradiol; mean ± SE, 16 weeks) was 12.8 ± 1.6 pg/mL, the plasma estradiol (estradiol; [7]) was 18.8 ± 2.5 pg/mL and the mean estradiol level (estradiol; mean ± SE, two weeks) was 10.8 ± 0.8 pg/mL. The “time of maximal suppression of estradiol” value (estradiol; post injection, all subjects) was “two”, the Estradiol (estradiol; [8]) was 22 pg/mL and the Estradiol (estradiol; subject four, 200 mg every 3 wks, after 16 wks treatment, before 30) was under 10 pg/mL. It also gave an Estradiol (estradiol; [9]) of 12 pg/mL, an Estradiol (estradiol; subject one, 400 mg every 3 wks, after 16 wks treatment, before 16) of under 10 pg/mL and an Estradiol (estradiol; [10]) of 18 pg/mL. It also gave an Estradiol (estradiol; subject three, 200 mg every 2 wks, after 16 wks treatment, before 28) of 15 pg/mL, an Estradiol (estradiol; [11]) of 23 pg/mL and an Estradiol (estradiol; subject two, 400 mg every 3 wks, after 16 wks treatment, before 21) of 16 pg/mL. The residual estradiol levels (estradiol; two of the four boys, LH and testosterone suppressed) was “significant estradiol levels persisted”, the “estradiol suppression at 200 mg” value (estradiol; two subjects, 200 mg dose) was “not adequately suppressed” and the “24-hour urinary FSH” value (FSH [3]) was 2.9±0.1 IU/day. The DHT levels ([4]; injection, general statement) was “elevation”, the “increase in plasma DHT” value ([4]; one week after injection of 200 mg DHT-hep) was 5-8 fold and the “plasma LH change” value (LH [5]; [6]) was “reduction”. For the same compound, the “plasma LH” value (LH [5]; [13]) was “suppressed”, the LH (LH [5]; injection, general statement) was “suppression” and the “further suppression of plasma LH” value (LH [5]; plasma LH low before treatment in three patients) was “not statistically significant”. For the same compound, the LH (LH [5]; [8]) was 14 ng/mL, the LH (LH [5]; subject four, 200 mg every 3 wks, after 16 wks treatment, before 25) was under 11 ng/mL and the LH (LH [5]; [9]) was under 11 ng/mL. For the same compound, the LH (LH [5]; subject one, 400 mg every 3 wks, after 16 wks treatment, before less than 11) was under 11 ng/mL, the LH (LH [5]; [10]) was 27 ng/mL and the LH (LH [5]; subject three, 200 mg every 2 wks, after 16 wks treatment, before less than 11) was under 11 ng/mL. The LH (LH [5]; [11]) was 19 ng/mL, the LH (LH [5]; subject two, 400 mg every 3 wks, after 16 wks treatment, before 15) was under 11 ng/mL and the breast size change (gynecomastia; [6]) was “significant reduction in breast size”. The “regression of breast tissue” value (gynecomastia; intramuscular injections, four adolescent boys) was “regression of breast tissue in all four adolescent boys”, the mean breast area (gynecomastia; mean ± SE, four boys, after 16 weeks of treatment, before 24.3±4.1, p less than 0.002) was 7.0±1.5 cm^2 and the “increase in breast size on follow-up” value (gynecomastia; patient four, followed for nine months) was “no increase in breast size”. The “decrease in breast area” value (gynecomastia; range of four boys, 16 weeks) was 66.6 to 77.5%, the “regrowth of breast tissue” value (gynecomastia; six to nine months after therapy was discontinued) was “no regrowth of breast tissue” and the “% Decrease in Breast Area” value (gynecomastia; [8]) was 70.1%. For the same compound, the “Breast Area” value (gynecomastia; [8]) was 4.0 cm^2, the “Breast Diameter” value (gynecomastia; [8]) was 2.3 cm and the “% Decrease in Breast Area” value (gynecomastia; subject four, 200 mg every 3 wks, after 16 wks treatment) was 70.1%. For the same compound, the “Breast Diameter” value (gynecomastia; subject four, 200 mg every 3 wks, after 16 wks treatment, before 4.0) was 2.3 cm, the “Breast Area” value (gynecomastia; subject four, 200 mg every 3 wks, after 16 wks treatment, before 13.5) was 4.0 cm^2 and the “% Decrease in Breast Area” value (gynecomastia; [9]) was 75.5%. The “Breast Area” value (gynecomastia; [9]) was 6.0 cm^2, the “Breast Diameter” value (gynecomastia; [9]) was 2.6 cm and the “% Decrease in Breast Area” value (gynecomastia; subject one, 400 mg every 3 wks, after 16 wks treatment) was 75.2%. For the same compound, the “Breast Diameter” value (gynecomastia; subject one, 400 mg every 3 wks, after 16 wks treatment, before 5.6) was 2.7 cm, the “Breast Area” value (gynecomastia; subject one, 400 mg every 3 wks, after 16 wks treatment, before 24.6) was 6.1 cm^2 and the “% Decrease in Breast Area” value (gynecomastia; [10]) was 77.5%. The “Breast Area” value (gynecomastia; [10]) was 4.0 cm^2, the “Breast Diameter” value (gynecomastia; [10]) was 2.3 cm and the “% Decrease in Breast Area” value (gynecomastia; subject three, 200 mg every 2 wks, after 16 wks treatment) was 77.5%. The “Breast Diameter” value (gynecomastia; subject three, 200 mg every 2 wks, after 16 wks treatment, before 4.8) was 2.3 cm, the “Breast Area” value (gynecomastia; subject three, 200 mg every 2 wks, after 16 wks treatment, before 17.7) was 4.0 cm^2 and the “% Decrease in Breast Area” value (gynecomastia; [11]) was 69.9%. For the same compound, the “Breast Area” value (gynecomastia; [11]) was 12.6 cm^2, the “Breast Diameter” value (gynecomastia; [11]) was 3.3 cm and the “% Decrease in Breast Area” value (gynecomastia; subject two, 400 mg every 3 wks, after 16 wks treatment) was 66.6%. The “Breast Diameter” value (gynecomastia; subject two, 400 mg every 3 wks, after 16 wks treatment, before 7.3) was 4.2 cm, the “Breast Area” value (gynecomastia; subject two, 400 mg every 3 wks, after 16 wks treatment, before 41.4) was 13.9 cm^2 and the “regrowth of breast tissue” value (gynecomastia; two and six months after therapy was discontinued) was “No regrowth of breast tissue occurred in any subject”. For the same compound, the penile length change (male external genitalia; [13]) was “penile length increased significantly”, the “pubic and auxiliary hair” value (male external genitalia; [13]) was “pubic and auxiliary hair increased” and the androgenic effects (male external genitalia; general statement) was “enlargement of the male genitalia, growth of pubic hair, growth of facial hair, and increase in height and weight”. For the same compound, the erections and ejaculations (male external genitalia; [14]) was “erections and ejaculations were reported”, the muscle mass (male external genitalia; [14]) was “significant increase in muscle mass” and the pubic hair (male external genitalia; [14]) was “Pubic hair increased”. For the same compound, the penile diameter (male external genitalia; person, hypogonadotrophic hypogonadism, 200 mg/month i.m., 6 months, from 1.5) was 2.5 cm, the penile length (male external genitalia; person, hypogonadotrophic hypogonadism, 200 mg/month i.m., 6 months, from 4 cm) was 8 cm and the plasma testosterone change (testosterone; DHT-hep i.m., four boys) was “statistically significant decreases”. For the same compound, the plasma testosterone change (testosterone; [6]) was “reduction”, the plasma testosterone (testosterone; [13]) was “suppressed” and the Testosterone (testosterone; injection, general statement) was “suppression”. For the same compound, the “maintenance of testosterone suppression” value (testosterone; [12]) was “maintained”, the mean plasma testosterone (testosterone; mean ± SE, 16 weeks) was 33.8 ± 3.2 ng/dL and the plasma testosterone (testosterone; [7]) was 214.9 ± 34.8 ng/dL. The mean plasma testosterone (testosterone; mean ± SE, two weeks) was 29.5 ± 3.3 ng/dL, the “time of rebound of testosterone to pretreatment levels” value (testosterone; post injection) was “four” and the “time of maximal suppression of testosterone” value (testosterone; post injection, all subjects) was “two”. It also gave a Testosterone (testosterone; [8]) of 297 ng/dL, a Testosterone (testosterone; subject four, 200 mg every 3 wks, after 16 wks treatment, before 517) of 40 ng/dL and a Testosterone (testosterone; [9]) of 178 ng/dL. The Testosterone (testosterone; subject one, 400 mg every 3 wks, after 16 wks treatment, before 129) was under 25 ng/dL, the Testosterone (testosterone; [10]) was 244 ng/dL and the Testosterone (testosterone; subject three, 200 mg every 2 wks, after 16 wks treatment, before 317) was 34 ng/dL. It also gave a Testosterone (testosterone; [11]) of 140 ng/dL and a Testosterone (testosterone; subject two, 400 mg every 3 wks, after 16 wks treatment, before 174) of 36 ng/dL.
